The source of these data is patent US10513521B2, “Compositions and methods for inhibiting BMP” (The Brigham and Women's Hospital, Inc., priority 2014, dated 2019).

Molecules are shown by their SMILES. Positions count from the first letter of the chain named.

Assay [1] has as its target T1, ALK2 (Mus musculus, UniProt P37172).
T1 construct: The C2C12 cell line was selected for the measurement of ALK2 activity using BMP6 as the agonist; host or cells: C2C12
T1 sequence (P37172 21-509): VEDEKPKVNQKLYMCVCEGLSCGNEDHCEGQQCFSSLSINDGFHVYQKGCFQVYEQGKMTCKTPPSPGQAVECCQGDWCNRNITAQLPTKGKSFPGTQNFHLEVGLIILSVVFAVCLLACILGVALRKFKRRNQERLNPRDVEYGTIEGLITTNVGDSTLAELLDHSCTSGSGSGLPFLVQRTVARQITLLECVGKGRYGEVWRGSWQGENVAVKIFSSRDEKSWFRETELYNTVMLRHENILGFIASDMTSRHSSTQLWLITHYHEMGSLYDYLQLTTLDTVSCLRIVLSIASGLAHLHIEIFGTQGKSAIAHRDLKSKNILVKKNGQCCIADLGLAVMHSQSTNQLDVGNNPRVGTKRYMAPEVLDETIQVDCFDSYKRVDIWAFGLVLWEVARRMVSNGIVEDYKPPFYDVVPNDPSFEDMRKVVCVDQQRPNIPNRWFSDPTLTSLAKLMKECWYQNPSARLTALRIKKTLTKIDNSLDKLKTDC
Put plainly: HTRF pSMAD1 cell-based ALK2 assay (C2C12 cells, BMP6 as agonist). Particulars: cell-based assay, BMP6; read-out: Cell IC50 BMP6. As for the experimental part: 2. HTRF Cell-Based ALK1 and ALK2 Assays in 384-Well Plate Format We have developed a cell based ALK1 kinase assay and a cell-based ALK2 assay. The BAOEC cell line was employed for the measurement of ALK1 activity using BMP9 as the agonist. The C2C12 cell line was selected for the measurement of ALK2 activity using BMP6 as the agonist. The kinase specificity was defined by the specific cell line and agonist. The kinase activity was determined by the status of SMD 1/5/8 phosphorylation stimulated by the agonist.
HyClone Fetal Bovine Serum was obtained from GE healthcare life sciences (Logan, Utah). BMP6 and BMP9 were purchased from R&D System. […] The compound plates and the white solid MB assay plates were purchased from Greiner Bio-one (Monroe, N.C.).
HTRF optimization experiments were performed in 384 well plate format. […] Pre-starved cells were then plated in 384 well plate in the starvation medium (containing in 0.1% FBS). After 4 hours, compounds were added to the assay plate and incubated for 30 minutes. The assay plate was then added with BMP6 for C2C12 cells or BMP9 for BAOEC cells and incubated for 30 minutes.
HTRF assay was performed to measure the status of SMAD 1 phosphorylation after stimulated with the agonist (Table 3). This HTRF phospho SMAD1 cell assay was developed and optimized for the homogenous detection of phospho SMAD 1 levels in cells. […] The plate was incubated at room temperature for overnight.

In assay [2] the target is ALK1 (Homo sapiens, UniProt P37023). Put plainly: TR-FRET enzymatic ALK kinase assay, ALK1. (In general: TR-FRET usually uses a lanthanide donor and a delayed reading to cut background.)
The target in assay [3] is T2, ALK2 (Homo sapiens, UniProt Q04771).
T2 sequence (Q04771 21-509): T1 sequence (P37172 21-509) with V1M, Q10P, I121L, E162D, S310P
In words: TR-FRET enzymatic ALK kinase assay, ALK2.

The target of assay [4] is ALK3 (Homo sapiens, UniProt P36894). In words: TR-FRET enzymatic ALK kinase assay, ALK3.
The target of assay [5] is T3, ALK4 (Homo sapiens, UniProt P36896).
T3 sequence (P36896 24-505): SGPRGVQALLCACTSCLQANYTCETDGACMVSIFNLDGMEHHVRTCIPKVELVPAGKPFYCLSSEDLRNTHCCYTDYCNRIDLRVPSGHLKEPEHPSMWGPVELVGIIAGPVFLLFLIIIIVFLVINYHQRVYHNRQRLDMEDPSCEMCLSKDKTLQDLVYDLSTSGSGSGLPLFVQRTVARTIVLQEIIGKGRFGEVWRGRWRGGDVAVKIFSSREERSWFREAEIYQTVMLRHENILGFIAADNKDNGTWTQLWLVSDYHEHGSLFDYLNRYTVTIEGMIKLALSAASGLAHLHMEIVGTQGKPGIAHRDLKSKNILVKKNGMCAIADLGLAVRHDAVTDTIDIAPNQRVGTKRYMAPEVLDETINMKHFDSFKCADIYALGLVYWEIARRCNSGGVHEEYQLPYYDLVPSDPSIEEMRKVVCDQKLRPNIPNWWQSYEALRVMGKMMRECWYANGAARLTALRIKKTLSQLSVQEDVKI
Put plainly: TR-FRET enzymatic ALK kinase assay, ALK4.

In assay [6] the target is T4, ALK5 (Homo sapiens, UniProt P36897).
T4 sequence (P36897 34-503): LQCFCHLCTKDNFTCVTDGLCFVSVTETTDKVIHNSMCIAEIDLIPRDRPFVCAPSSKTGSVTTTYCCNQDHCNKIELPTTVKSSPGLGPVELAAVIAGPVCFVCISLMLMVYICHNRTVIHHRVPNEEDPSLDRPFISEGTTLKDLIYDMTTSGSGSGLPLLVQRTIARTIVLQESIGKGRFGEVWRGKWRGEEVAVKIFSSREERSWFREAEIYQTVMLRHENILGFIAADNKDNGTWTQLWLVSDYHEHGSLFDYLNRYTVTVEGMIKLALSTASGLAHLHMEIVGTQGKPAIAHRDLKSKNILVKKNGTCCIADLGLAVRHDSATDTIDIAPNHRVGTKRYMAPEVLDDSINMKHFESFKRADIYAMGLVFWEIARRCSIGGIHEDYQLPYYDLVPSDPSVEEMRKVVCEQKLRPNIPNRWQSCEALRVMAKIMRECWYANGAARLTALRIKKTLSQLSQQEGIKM
In words: TR-FRET enzymatic ALK kinase assay, ALK5.

For assay [7], the target named is ALK6 (Homo sapiens, UniProt O00238). Put plainly: TR-FRET enzymatic ALK kinase assay, ALK6.
Sequence of ALK6 (O00238 14-502): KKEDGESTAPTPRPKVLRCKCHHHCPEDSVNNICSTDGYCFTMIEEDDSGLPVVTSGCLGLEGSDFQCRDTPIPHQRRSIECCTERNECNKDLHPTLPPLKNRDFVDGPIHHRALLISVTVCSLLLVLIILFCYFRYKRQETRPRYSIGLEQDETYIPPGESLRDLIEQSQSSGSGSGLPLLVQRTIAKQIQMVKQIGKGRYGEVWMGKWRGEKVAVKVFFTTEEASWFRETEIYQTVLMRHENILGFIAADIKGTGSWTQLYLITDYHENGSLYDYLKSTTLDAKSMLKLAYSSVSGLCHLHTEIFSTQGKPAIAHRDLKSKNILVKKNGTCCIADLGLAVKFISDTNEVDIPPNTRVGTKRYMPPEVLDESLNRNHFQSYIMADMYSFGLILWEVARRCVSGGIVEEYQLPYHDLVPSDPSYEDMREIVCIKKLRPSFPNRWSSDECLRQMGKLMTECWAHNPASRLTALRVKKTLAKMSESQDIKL

Sequence of ALK1 (P37023 22-503): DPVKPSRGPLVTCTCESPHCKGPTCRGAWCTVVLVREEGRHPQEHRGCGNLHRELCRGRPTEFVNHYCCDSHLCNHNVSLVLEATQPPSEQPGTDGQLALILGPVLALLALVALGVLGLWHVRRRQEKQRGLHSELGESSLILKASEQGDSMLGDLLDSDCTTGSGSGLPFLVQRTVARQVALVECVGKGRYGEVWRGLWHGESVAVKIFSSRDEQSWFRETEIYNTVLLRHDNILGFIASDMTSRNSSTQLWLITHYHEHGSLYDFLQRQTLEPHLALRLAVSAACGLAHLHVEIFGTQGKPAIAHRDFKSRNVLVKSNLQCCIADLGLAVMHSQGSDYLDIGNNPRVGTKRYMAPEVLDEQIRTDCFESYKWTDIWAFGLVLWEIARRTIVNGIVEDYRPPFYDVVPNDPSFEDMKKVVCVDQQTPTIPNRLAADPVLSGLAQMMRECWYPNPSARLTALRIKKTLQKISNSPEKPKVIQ
Sequence of ALK3 (P36894 24-532): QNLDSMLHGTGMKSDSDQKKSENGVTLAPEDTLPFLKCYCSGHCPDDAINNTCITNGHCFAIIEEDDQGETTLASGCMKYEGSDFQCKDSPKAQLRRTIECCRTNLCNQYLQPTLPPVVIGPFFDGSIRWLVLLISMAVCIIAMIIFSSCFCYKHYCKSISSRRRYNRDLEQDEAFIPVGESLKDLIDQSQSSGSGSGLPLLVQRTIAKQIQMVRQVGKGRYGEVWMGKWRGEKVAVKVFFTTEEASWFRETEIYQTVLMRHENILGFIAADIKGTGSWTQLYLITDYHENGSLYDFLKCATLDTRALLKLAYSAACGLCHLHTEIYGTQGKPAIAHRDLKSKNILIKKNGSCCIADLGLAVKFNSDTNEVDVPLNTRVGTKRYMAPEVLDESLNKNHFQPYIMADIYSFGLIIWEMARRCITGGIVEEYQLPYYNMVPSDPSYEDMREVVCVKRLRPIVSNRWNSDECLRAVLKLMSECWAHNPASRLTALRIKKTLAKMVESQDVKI

Turning to `CS(=O)(=O)c1cccc(-c2cnn3cc(-c4ccc(C(F)(F)CN5CCNCC5)cc4)cnc23)c1` [Compound 122, 6-(4-(1,1-difluoro-2-(piperazin-1-yl)ethyl)phenyl)-3-(3-(methylsulfonyl)phenyl)pyrazolo[1,5-a]pyrimidine], the IC50 is 0.002 µM in assay [1]; 0.37 µM in assay [2]; 0.25 µM in assay [3]; above 10 µM in assay [4]; above 10 µM in assay [5]; above 10 µM in assay [6]. In assay [7], this compound yielded an IC50 above 10 µM.
As for `O=[S+]([O-])(c1cccc(-c2cnn3cc(-c4ccc(C5CCNCC5)cc4)cnc23)c1)C1CC1` [Compound 110, 3-(3-(cyclopropylsulfonyl)phenyl)-6-(4-(piperidin-4-yl)phenyl)pyrazolo[1,5-a]pyrimidine], the IC50 in assay [1] was 0.71 µM; in assay [2], 0.48 µM; in assay [3], 0.05 µM; in assay [4] it was 3.9 µM; in assay [5], above 10 µM; in assay [6] it was above 10 µM. Also, the IC50 in assay [7] was above 10 µM.
`CS(=O)(=O)c1cccc(-c2cnn3cc(-c4ccc(C(F)(F)CN5CCOCC5)cc4)cnc23)c1` [Compound 121, 4-(2,2-difluoro-2-(4-(3-(3-(methylsulfonyl)phenyl)pyrazolo[1,5-a]pyrimidin-6-yl)phenyl)ethyl)morpholine]: the IC50 was 0.836 µM in assay [1]; 0.69 µM in assay [2]; 0.35 µM in assay [3]; above 10 µM in assay [4]; above 10 µM in assay [5]; above 10 µM in assay [6]. In assay [7], this compound gave an IC50 above 10 µM.
With `CN(C)CCOc1ccc(-c2cnc3c(-c4ccc(S(N)(=O)=O)c5ccccc45)cnn3c2)cc1` [Compound 61, 4-(6-(4-(2-(dimethylamino)ethoxy)phenyl)pyrazolo[1,5-a]pyrimidin-3-yl)naphthalene-1-sulfonamide], the 50% inhibitory concentration (IC50) is 2.2 µM in assay [1]; 0.47 µM in assay [2]; 0.11 µM in assay [3]; above 10 µM in assay [4]; above 10 µM in assay [5]; above 10 µM in assay [6]. The compound further came in with an IC50 in assay [7] above 10 µM.
`C[C@@H]1CNC[C@H](C)N1c1ccc(-c2cnc3c(-c4cccc(C#N)c4)cnn3c2)cc1` [Compound 69, 3-(6-(4-((2R,6S)-2,6-dimethylpiperazin-1-yl)phenyl)pyrazolo[1,5-a]pyrimidin-3-yl)benzonitrile]: the half-inhibitory concentration (IC50) in assay [1] was 2.25 µM; in assay [2] it was 0.93 µM; in assay [3], 0.14 µM; in assay [4], above 10 µM; in assay [5], above 10 µM; in assay [6], above 10 µM. In addition, the concentration for half-maximal inhibition (IC50) in assay [7] is above 10 µM.
On to `Cc1ccc([S+](=O)([O-])C(F)(F)F)cc1-c1cnn2cc(-c3ccc(N4[C@H](C)CNC[C@@H]4C)cc3)cnc12` [Compound 107, 6-(4-((2R,6S)-2,6-dimethylpiperazin-1-yl)phenyl)-3-(2-methyl-5-((trifluoromethyl)sulfonyl)phenyl)pyrazolo[1,5-a]pyrimidine], for which the IC50 is 2.13 µM in assay [1]; above 10 µM in assay [2]; 6.6 µM in assay [3]; above 10 µM in assay [4]; above 10 µM in assay [5]; above 10 µM in assay [6]. This compound registered a half-inhibitory concentration (IC50) in assay [7] above 10 µM.
As to `C[C@@H]1CNC[C@H](C)N1c1ccc(-c2cnc3c(-c4ccc(Cl)c5ccccc45)cnn3c2)cc1` [Compound 44, 3-(4-chloronaphthalen-1-yl)-6-(4-((2R,6S)-2,6-dimethylpiperazin-1-yl)phenyl)pyrazolo[1,5-a]pyrimidine], the IC50 is 5.5 µM in assay [1]; 0.39 µM in assay [2]; 0.13 µM in assay [3]; 2 µM in assay [4]; above 10 µM in assay [5]; above 10 µM in assay [6]. Moreover, the concentration for half-maximal inhibition (IC50) in assay [7] is above 10 µM.
Turning to `CS(=O)(=O)c1cccc(-c2cnn3cc(-c4ccc(C(F)(F)CN5CCCCC5)cc4)cnc23)c1` [Compound 120, 6-(4-(1,1-difluoro-2-(piperidin-1-yl)ethyl)phenyl)-3-(3-(methylsulfonyl)phenyl)pyrazolo[1,5-a]pyrimidine], the concentration for half-maximal inhibition (IC50) is 3.6 µM in assay [1]; above 10 µM in assay [2]; above 10 µM in assay [3]; above 10 µM in assay [4]; above 10 µM in assay [5]; above 10 µM in assay [6]. This compound also displayed an IC50 in assay [7] above 10 µM.
As for `C[C@@H]1CNC[C@H](C)N1c1ccc(-c2cnc3c(-c4cccc(CO)c4)cnn3c2)cc1` [Compound 74, (3-(6-(4-((2R,6S)-2,6-dimethylpiperazin-1-yl)phenyl)pyrazolo[1,5-a]pyrimidin-3-yl)phenyl)methanol], the half-inhibitory concentration (IC50) in assay [1] was 0.08 µM; in assay [2], 0.15 µM; in assay [3] it was 0.04 µM; in assay [4], 1.7 µM; in assay [5] it was above 10 µM; in assay [6] it was above 10 µM. Besides, the IC50 in assay [7] was above 10 µM.
Regarding `O=[S+]([O-])(c1cccc(-c2cnn3cc(-c4ccc(CCN5CCCCC5)cc4)cnc23)c1)C1CC1` [Compound 112, 3-(3-(cyclopropylsulfonyl)phenyl)-6-(4-(2-(piperidin-1-yl)ethyl)phenyl)pyrazolo[1,5-a]pyrimidine], the IC50 in assay [1] is 0.008 µM; in assay [2], 1.3 µM; in assay [3], 0.079 µM; in assay [4], 8.1 µM; in assay [5], above 10 µM; in assay [6], above 10 µM. The compound also gave a concentration for half-maximal inhibition (IC50) in assay [7] of 9.8 µM.

As a reminder, the IC50 is the midpoint of a concentration-inhibition curve.
